Laboratory results from US9986723B2, “Screen and use of therapeutics for pancreatic ductal adenocarcinoma” (The Board of Regents of the University of Texas System, priority 2014, dated 2018).

Assays:
[1] = target: vitamin K epoxide reductase (Homo sapiens, UniProt Q9BQB6); details: cited from earlier work
[2] = tested on: PanIN and PDA tumor growth in KIC mice; test: Two week in vivo assay in Rgs16::GFP;KIC mice, Rgs16::GFP intensity at P29; parameters: species or system mouse; details: for effect on GFP levels when combined with GA: drug dissolved in 30% Cyclodextrin
Description: Fluorescent microscopy and GFP quantification. Pancreatic expression of Rgs16::GFP in GFP-PDA mice was quantified using a Zeiss Lumar microscope. Images were captured using a single-channel camera (Hamamatsu) in 1344×1024 resolution with 1 sec exposure under 48× magnification with 1×1 binning, analog gain=10, and analog offset=2 settings. Pancreatic fields representing the tumor burden (3-4 fields for P15 pups and 5 or more for pups from P23 onwards) of the pancreas were imaged covering up to 50% of the organ surface area. All images were saved in gray-scale 16-bit tiff format. Images were quantified using NIH ImageJ software with background subtraction with a radius of 50 pixels. A variable and tight threshold was set to eliminate residual background. Intensities of all particles with size ≥5 pixels were summed to obtain the total light intensity per image.
Drug dosages. GFP-PDA mice were injected intraperitoneally with gemcitabine (Eli Lilly; Indianapolis, Ind., USA) (12.5 mg/kg/day given 3 days/week, dissolved in PBS), Abraxane (Cellgene; Summit, N.J., USA) (5 mg/kg/day given 2 days/week, diluted in 2% saline solution), BGB324 (BerGenBio, Bergen, Norway) (5 mg/kg/day given 5 days/week, dissolved in a mix of DMSO:ethanol:Kolliphor EL:water with 4:4:8:84 v/v ratio), and warfarin (0.2 mg/kg/day given 5 days/week, dissolved in PBS) according to injection schedules specified below. These doses were validated in prior mouse studies (Dineen et al., 2010; Kutluk Cenik et al., 2013; Ostapoff et al., 2013; Aguilera et al., 2014; Ostapoff et al., 2014). […] To verify tumor progression remains constant over the duration of these experiments, assays of untreated mice were interspersed with drug-treated cohorts, and warfarin-treated pups were the final cohort the inventors tested. Gemcitabine, Abraxane and warfarin were purchased from the UT Southwestern clinical pharmacy; BGB324 was a gift from BerGenBio.
Statistical analysis of GFP expression. GFP values were converted to log10 scale prior to statistical analysis. Graphs and their statistical comparisons were done using Graphpad Prism software with unpaired and two-tailed Student's t test. Significance between groups was indicated as ns (not significant); *p<0.05; **p<0.01; ***p<0.001; ****p<0.0001. Error bars in all the graphs are standard error mean (SEM). See FIGS. 7-8 for additional statistical analysis.
The therapeutic screening strategy was to treat KIC pups between P15-P28 (when PanIN and PDA are in rapid expansion) with anticancer drugs, sacrifice mice at P29, and capture Rgs16::GFP intensity with a dissection fluorescence microscope. Images of the five brightest non-overlapping fields of Rgs16::GFP expression were then collected, representing the regions of greatest tumor burden (FIGS. 17A-C).

Panc1 = test: MTS cell growth assay, gemcitabine +/- warfarin; type: cell-based, human; details: Homo sapiens, PANC-1, 120 h; gemcitabine alone; 5 days, MTS; read-out: Gemcitabine (nmol/L) median IC50
Protocol: (§1) Cytotoxicity and augmentation of chemotherapy response was measured by MTS assays conducted in 96-well plates; cells were plated on day 0 and drug was added on day 1 in 4-fold dilutions. Maximum concentration of 2,000 nmol/L for gemcitabine was used with or without the addition of a constant concentration of 2 μM warfarin or 1.1 μM 10C9. Relative cell number was determined by adding MTS (Promega; final concentration […]), incubating for 1 to 3 hours at 37° C., and reading absorbance. Drug sensitivity curves and IC50s were calculated using in-house software.

ASPC = test: MTS cell growth assay, gemcitabine +/- warfarin; type: cell-based, human; details: Homo sapiens, 120 h; gemcitabine alone; 5 days, MTS; read-out: Gemcitabine (nmol/L) median IC50
Protocol: as §1

[3] = Body weight of KIC weanling mice under chemotherapy; type: in vivo, mouse; details: P29
Description: FIG. 19. […] Comparison of body weight of female (round) and male (square) non-KIC control (Ctrl, grey), and KIC untreated (Unt, black) or chemotherapy-treated KIC groups are shown. […] Significances are based on comparison of any KIC group to Ctrl via unpaired and two-tailed Student's t-test. ****, p<0.0001.

advanced PDA = details: patients; cited from earlier work
MiaPaca = test: MTS cell growth assay, gemcitabine +/- warfarin; type: cell-based; details: Homo sapiens, MIA PaCa-2, 120 h, gemcitabine alone, 5 days, read-out: Gemcitabine (nmol/L) median IC50
Protocol: as §1

Capan = test: MTS cell growth assay, gemcitabine +/- warfarin; type: cell-based; details: Homo sapiens, 120 h, gemcitabine alone, 5 days, read-out: Gemcitabine (nmol/L) median IC50
Protocol: as §1

MiaShAxl = test: MTS cell growth assay, gemcitabine +/- warfarin; type: cell-based; details: Homo sapiens, 120 h, gemcitabine alone, 5 days, read-out: Gemcitabine (nmol/L) median IC50
Protocol: as §1

Pan02 = test: MTS cell growth assay, gemcitabine +/- warfarin; type: cell-based, murine; details: Mus musculus, Pan02, 120 h, gemcitabine alone, 5 days, read-out: Gemcitabine (nmol/L) median IC50
Protocol: as §1

primary PDA cells = test: Rgs16::GFP PDA primary cell culture, live cell counts after 24 hr drug treatment; type: cell-based, mouse; details: for effect on cell viability and proliferation: 24 hr, gemcitabine 10 μM, BGB324 or warfarin 1 or 10 μM; for recovery of cell growth after drug removal: passages without drug after 24 hr treatment
Protocol: Cell proliferation counts of primary PDA culture after 24 hr treatment with (FIG. 20A) gemcitabine (purple round); (FIG. 20B) BGB324 (green round); (FIG. 20C) warfarin (blue round); or (FIG. 20D) BGB324 with warfarin (green or blue round) at the indicated concentrations. PDA primary cells were plated at equal density (black open circle) at the start. Next day, cells were treated with drugs (D, red font) for 24 hr (red line). Approximate cell number at the start of drug treatment was obtained from another plate with equal density (red open circle). At the end of treatment, cells in each group were counted and subsequent passages started with cells plated at equal density (grey asterisk). Drug treated groups were allowed to grow without drug selection thereafter. Control cells (Ctrl) on separate plates were grown without drug and counted at the end of each passage (black open circle). PDA live cell numbers were obtained via counts using a hemocytometer after 2% Trypan blue staining to distinguish between living and dead cells under an inverted microscope with 10× objective. Statistical significances are based on comparison of drug-treated cell counts to Ctrl. […] Statistical analyses were obtained by comparing counts of drug-treated cells to Ctrl via unpaired and two-tailed Student's t-test. *, p<0.05; **, p<0.01; ***, p<0.001; ****, p<0.0001. Asterisks match the color of the comparison group.
Rgs16::GFP PDA primary cell culture. Primary Rgs16::GFP PDA cells were harvested from 6-week-old KIC mice. Cells were grown in 25 mM Glucose DMEM (HyClone) with 10% FBS (Serum Source International), penicillin and streptomycin (Life Technologies) on rat tail collagen typel (BD Biosciences) coated plates (0.5 μg/cm^2) in a humidified incubator at 37° C. and 5% CO2. Cells reaching confluency were washed twice with PBS (HyClone) and lifted with 0.05% Trypsin-EDTA (HyClone) treatment up to 10 min in the incubator. For drug tests in FIGS. 20A-D, primary PDA cells were incubated with gemcitabine (10 μM dissolved in PBS), warfarin (1 μM or 10 μM dissolved in water), BGB324 (1 μM or 10 μM dissolved in DMSO) or warfarin and BGB324 together for 24 hrs in 37° C. incubator. PDA live cell numbers were obtained via counts using a hemocytometer following 2% trypan blue staining to distinguish dead cells under an inverted microscope.

advanced ovarian cancer = details: gemcitabine with carboplatin; cited from earlier work
Axl = target: T1, Axl (Homo sapiens, UniProt P30530); test: Phosphorylated Axl in Panc-1 cells (western blot, immunofluorescence); type: cell-based; details: overnight, 1% serum, 2 μM
T1 construct: Lysates were probed for total Axl (tAxl) and phosphorylated Axl (pAxl); endogenous in cells; host or cells: Panc-1
Protocol: (FIG. 24A) HEK293 cells engineered to stably express recombinant Gas6 were grown in the presence of Vitamin K or Vitamin K+warfarin. Gas6 levels and γ-carboxylation were assayed by immunoblotting conditioned media. Conditioned media from untransfected HEK293 cells was used as a negative control. (FIG. 24B) Panc1 cells were grown overnight in media with 1% serum with no additions (NT), warfarin (2 μM) or BGB324 (2 μM). Lysates were probed for total Axl (tAxl) and phosphorylated Axl (pAxl). (FIG. 24C) Panc1 cells were grown in the presence of control media, Vitamin K, warfarin or warfarin+Vitamin K. The level of phosphorylated Axl (pAXL, red) was determined by immunofluorescence. (FIG. 24D) Panc1 cells were grown overnight in media with 1% serum with no additions (control), warfarin (1 μM), Gas6 (1.3 nM) or Gas6+warfarin. Lysates were probed for phosphorylated Akt (pAkt) and actin. (FIG. 24E) Lysates from Panc1 tumors harvested from mice treated with control or warfarin were probed for expression of tAxl, pAxl, actin, pAKT, tAKT, and cleaved Parp. (FIG. 24F) The effect of warfarin on cell migration was assessed by a ‘scratch’ assay. Monolayers of the indicted cells were wounded with a pipet tip. The cells were incubated in media containing 2% serum+/−warfarin (2 μM) or media containing 2% serum+Gas6 (1.3 nM)+/−warfarin.

T1 sequence (P30530 26-894): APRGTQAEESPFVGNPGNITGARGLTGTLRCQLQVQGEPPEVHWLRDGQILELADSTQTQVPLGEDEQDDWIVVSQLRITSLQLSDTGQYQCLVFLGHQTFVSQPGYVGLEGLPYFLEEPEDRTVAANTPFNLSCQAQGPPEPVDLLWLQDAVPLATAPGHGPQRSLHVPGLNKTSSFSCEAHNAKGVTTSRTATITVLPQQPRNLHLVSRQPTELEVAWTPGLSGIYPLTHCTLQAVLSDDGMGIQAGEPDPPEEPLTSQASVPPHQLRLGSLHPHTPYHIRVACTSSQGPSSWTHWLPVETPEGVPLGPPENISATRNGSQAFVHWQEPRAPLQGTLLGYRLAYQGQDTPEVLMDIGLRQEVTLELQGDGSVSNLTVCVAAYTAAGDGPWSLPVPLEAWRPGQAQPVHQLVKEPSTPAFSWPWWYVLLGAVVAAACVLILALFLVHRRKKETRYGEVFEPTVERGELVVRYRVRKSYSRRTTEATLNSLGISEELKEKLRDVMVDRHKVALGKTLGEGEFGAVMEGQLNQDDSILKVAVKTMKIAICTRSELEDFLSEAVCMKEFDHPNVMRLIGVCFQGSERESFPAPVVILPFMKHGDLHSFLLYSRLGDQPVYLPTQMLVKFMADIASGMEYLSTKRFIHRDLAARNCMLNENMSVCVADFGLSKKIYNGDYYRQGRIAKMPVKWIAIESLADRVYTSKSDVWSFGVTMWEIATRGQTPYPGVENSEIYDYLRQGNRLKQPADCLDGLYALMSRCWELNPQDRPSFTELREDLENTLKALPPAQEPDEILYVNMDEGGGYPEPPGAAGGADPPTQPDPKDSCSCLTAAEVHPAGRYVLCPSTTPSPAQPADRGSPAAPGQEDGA
Chain of vitamin K epoxide reductase (Q9BQB6 whole entry): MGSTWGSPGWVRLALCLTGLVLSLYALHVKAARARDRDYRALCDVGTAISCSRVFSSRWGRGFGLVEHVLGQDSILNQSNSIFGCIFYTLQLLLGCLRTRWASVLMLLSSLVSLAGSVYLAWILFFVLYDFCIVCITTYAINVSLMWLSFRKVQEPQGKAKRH

Structure (SMILES): CC(=O)C[C@@H](c1ccccc1)c1c(O)c2ccccc2oc1=O [S-warfarin]
- potency in producing an anticoagulant response relative to the R-isomer [1]: 2-5 times

Structure (SMILES): Cc1c(CN2CCN(C(=O)[C@H](C)O)CC2)sc2c(N3CCOCC3)nc(-c3cnc(N)nc3)nc12 [GDC980]
- effect on GFP levels when combined with GA [2]: did not exert an effect

Structure (SMILES): Nc1ccn([C@@H]2O[C@H](CO)[C@@H](O)C2(F)F)c(=O)n1 [Gemcitabine]
- IC50 (Panc1): 17.1 nmol/L
- IC50 (ASPC): 16 nmol/L
- body weight gain / growth of weanling mice [3]: retards body weight gain
- survival (advanced PDA): 6.7 months
- IC50 (MiaPaca): 14.5 nmol/L
- IC50 (Capan): 6.87 nmol/L
- IC50 (MiaShAxl): 21 nmol/L
- IC50 (Pan02): 76.5 nmol/L
- effect on cell viability and proliferation (primary PDA cells): killed cells
- recovery of cell growth after drug removal (primary PDA cells): did not recover
- effect on PanIN lesions and PDA tumor growth (Rgs16::GFP expression) ([2]; KIC mice treated P15-P28, i.p., sacrificed P29): reduction of GFP expression
- neutropenia (most commonly reported adverse effect) (advanced ovarian cancer): 90 % of patients

Structure (SMILES): Nc1nc(Nc2ccc3c(c2)CC[C@@H](N2CCCC2)CC3)nn1-c1cc2c(nn1)-c1ccccc1CCC2 [BGB324]
- phosphorylation of Axl (pAxl) (Axl): inhibited phosphorylation of Axl
- effect on cell viability and proliferation (primary PDA cells): cytostatic
- recovery of cell growth after drug removal (primary PDA cells): within four passages
- effect on GFP levels when combined with GA [2]: did not exert an effect
